Test results reported in patent US20150164875A1, “Compound Preparation of Lercanidipine and Atorvastatin” (ZHAOKE PHARMACEUTICAL (GUANGZHOU) COMPANY LIMITED, priority 2012, published 2015).
Where a name gives a salt, the structure may show the parent alone. Read-outs that look alike come from different tables or passages of the source.

Key:
[1] = test system: rats with spontaneous hypertension (adult MHS rats) fed with high fat diet; assay: Total serum cholesterol in rats with spontaneous hypertension accompanied by dyslipidemia (Example 4); format: in vivo, rat; settings: for total cholesterol: B 0.4 mg/kg, C 0.8 mg/kg, D 0.4 mg/kg+0.8 mg/kg, Mean ± SD; for change in total cholesterol (in words): over 4 weeks of administration, C and D p<0.05, B p>0.05
Description: (§1) 5-month-old rats with spontaneous hypertension (adult MHS rats), half males and half females, were fed with high fat diet every day (1.0% of cholesterol, 0.2% of propylthiouracil, 0.5% of sodium cholate, 5.0% of lard, 1.0% of methionine and 92.3% of basal diet) for four weeks; after four weeks, the basal systolic pressure and lipid levels in rats weighing 200-240 g were determined. Rats with hypertension accompanied with dyslipidemia were evenly divided into 4 groups with 12 rates in each group. The four groups were respectively as follows: solvent control group (A), lercanidipine group (lercanidipine hydrochloride, 0.4 mg/kg) (B), atorvastatin group (atorvastatin calcium, 0.8 mg/kg) (C), and lercanidipine/atorvastatin compound group (lercanidipine hydrochloride+atorvastatin calcium, 0.4 mg/kg+0.8 mg/kg) (D). Each group of drugs was formulated with physiological saline, and were administered to rats by gavage once a day for 4 consecutive weeks. Rats were measured 2 hours after administration at the end of each week for the systolic pressure and total serum cholesterol levels and so on.

[2] = test system: SD rats with hypertension accompanied by dyslipidemia; assay: Decrease in systolic pressure in experimental (renal artery clip) rats with hypertension accompanied by dyslipidemia (Example 5); format: in vivo, rat; settings: for Degree of antihypertension: gavage once a day, 20 weeks, systolic pressure before minus after administration, Mean ± SD; for systolic pressure as compared with the solvent control group (in words): end of week 20, lercanidipine 0.5 mg/kg, atorvastatin 1.0 mg/kg, compound 0.5 mg/kg+0.5/1.0/2.0 mg/kg, positive control 0.5 mg/kg+1.0 mg/kg
Description: SD rats, weighing 150-180 g, were anaesthetized by intraperitoneal injection with chloral hydrate (320 mg/kg). The abdominal cavity was opened, and the left renal artery was separated and was restricted with 0.2 mm silver clip. At 8-10 weeks following the procedure, rats with systolic pressure ≧140 mmHg were recognized as hypertension rats. Rats with hypertension were administered with vitamin D3 by gavage in a total dosage of 600,000 U/kg in three days, and then were fed with high-fat diet every day (cholesterol 1.0%, propylthiouracil 0.2%, sodium cholate 0.5%, lard 5.0%, methionine 1.0%, basal diet 92.3%). Rats in normal control group were fed with normal diet. After four weeks, systolic pressure was measured in rats, serum total cholesterol (TC) and triglyceride (TG) levels were determined by taking blood from tail vein.
(§2) 140 rats with hypertension accompanied by dyslipidemia were evenly divided into 7 groups with 20 rats in each group according to blood pressure and lipid levels, which were respectively solvent control group, lercanidipine group (lercanidipine hydrochloride, 0.5 mg/kg), atorvastatin group (atorvastatin calcium, 1.0 mg/kg), lercanidipine/atorvastatin compound group 1 (lercanidipine hydrochloride+atorvastatin calcium, 0.5 mg/kg+0.5 mg/kg), lercanidipine/atorvastatin compound group 2 (lercanidipine hydrochloride+atorvastatin calcium, 0.5 mg/kg+1.0 mg/kg), lercanidipine/atorvastatin compound group 3 (lercanidipine hydrochloride+atorvastatin calcium, 0.5 mg/kg+2.0 mg/kg), and positive control group (amlodipine besylate+atorvastatin calcium, 0.5 mg/kg+1.0 mg/kg).
(§3) Another 20 normal rats served as normal control group. Rats with hypertension were continued to be fed with the high-fat diet, and rats in normal group were fed with normal diet. Each group of drugs was formulated with physiological saline, and for the normal control group and solvent control group rats, same volume of physiological saline were administered. Rats were administered by gavage once a day for 20 consecutive weeks. Rats were weighed once a week, and the dosage was adjusted based on the weight. Blood pressures in different time points before and after administration were measured respectively to calculate the magnitude of the decrease in blood pressure (systolic pressure before administration−systolic pressure after administration). Rats were sampled 20 weeks later, and the serum total cholesterol (TC) and triglyceride (TG) levels were determined. The corresponding parameters for each group were represented with the mean±standard deviation (Mean±SD), and t-test was used to compare different groups.

[3] = test system: SD rats with hypertension accompanied by dyslipidemia; assay: Serum TC and TG in experimental rats with hypertension accompanied by dyslipidemia (Example 5); format: in vivo, rat; settings: for TC / TG: gavage once a day, serum after 20 weeks, Mean ± SD; for TC and TG as compared with the solvent control group (in words): end of week 20, lercanidipine 0.5 mg/kg, atorvastatin 1.0 mg/kg, compound 0.5 mg/kg+0.5/1.0/2.0 mg/kg, positive control 0.5 mg/kg+1.0 mg/kg
Description: SD rats, weighing 150-180 g, were anaesthetized by intraperitoneal injection with chloral hydrate (320 mg/kg). The abdominal cavity was opened, and the left renal artery was separated and was restricted with 0.2 mm silver clip. […] Rats in normal control group were fed with normal diet. After four weeks, systolic pressure was measured in rats, serum total cholesterol (TC) and triglyceride (TG) levels were determined by taking blood from tail vein.
as §2, §3

[4] = test system: rats with spontaneous hypertension (adult MHS rats) fed with high fat diet; assay: Systolic pressure in rats with spontaneous hypertension accompanied by dyslipidemia (Example 4); format: in vivo, rat; settings: for systolic pressure: B 0.4 mg/kg, C 0.8 mg/kg, D 0.4 mg/kg+0.8 mg/kg, Mean ± SD
Description: as §1

[5] = cited from earlier work
[6] = 0 week (basal, before administration)
[7] = 1 week, 2 hours after administration, gavage once a day
[8] = 2 weeks, 2 hours after administration, gavage once a day
[9] = 3 weeks, 2 hours after administration, gavage once a day
[10] = 4 weeks, 2 hours after administration, gavage once a day

SMILES | total cholesterol [1, 6] [mmol/L] | total cholesterol ([1]; 1 week, gavage once a day) [mmol/L] | total cholesterol ([1]; 2 weeks, gavage once a day) [mmol/L] | total cholesterol ([1]; 3 weeks, gavage once a day) [mmol/L] | total cholesterol ([1]; 4 weeks, gavage once a day) [mmol/L] | change in total cholesterol (in words) [1] | systolic pressure as compared with the solvent control group (in words) [2] | TC and TG as compared with the solvent control group (in words) [3] | systolic pressure [4, 6] [mmHg] | systolic pressure [4, 7] [mmHg] | systolic pressure [4, 8] [mmHg] | systolic pressure [4, 9] [mmHg] | systolic pressure [4, 10] [mmHg] | also measured
CC(C)c1c(C(=O)Nc2ccccc2)c(-c2ccccc2)c(-c2ccc(F)cc2)n1CC[C@@H](O)C[C@@H](O)CC(=O)[O-].CC(C)c1c(C(=O)Nc2ccccc2)c(-c2ccccc2)c(-c2ccc(F)cc2)n1CC[C@@H](O)C[C@@H](O)CC(=O)[O-].[Ca+2] [Group C, atorvastatin calcium] | 8.75 ± 2.65 | 7.51 ± 1.79 | 6.67 ± 2.03 | 6.15 ± 1.47 | 5.72 ± 1.48 | significant | improved | significantly decreased | 160 ± 5.3 | 166 ± 2.9 | 161 ± 5.1 | 159 ± 4.2 | 158 ± 3.7 | Degree of antihypertension ([2]; dosage 1.0 mg/kg): 2.4 ± 1.98 mmHg; TC ([3]; dosage 1.0 mg/kg): 5.27 ± 4.03 mmol/L; TG ([3]; dosage 1.0 mg/kg): 1.49 ± 0.74 mmol/L; lipid-lowering effect improved ([5]; comparing with the same dose of lovastatin): 51%; lipid-lowering effect improved ([5]; comparing with the same dose of pravastatin): 46%; lipid-lowering effect improved ([5]; comparing with the same dose of simvastatin): 38%
COC(=O)C1=C(C)NC(C)=C(C(=O)OC(C)(C)CN(C)CCC(c2ccccc2)c2ccccc2)C1c1cccc([N+](=O)[O-])c1 (stereo not drawn) [Group B, lercanidipine hydrochloride] | 8.49 ± 3.01 | 7.95 ± 2.48 | 7.55 ± 1.94 | 7.28 ± 1.76 | 7.01 ± 1.77 | decreased | significantly decreased | improved | 162 ± 4.1 | 158 ± 3.7 | 149 ± 5.1 | 138 ± 3.4 | 135 ± 2.5 | Degree of antihypertension ([2]; dosage 0.5 mg/kg): 35.8 ± 9.65 mmHg; TC ([3]; dosage 0.5 mg/kg): 8.27 ± 2.96 mmol/L; TG ([3]; dosage 0.5 mg/kg): 2.43 ± 1.21 mmol/L; change in systolic pressure (in words) ([4]; over 4 weeks of administration, p<0.01): decreased to normal blood pressure levels
